PubChem BioAssay AID248 (DTP/NCI, 2004)
Values joined by “and” are separate entries in the source; they are usually repeats but may differ in a detail not shown here. Equal entries are not always repeated. Inconclusive results and toxic doses are left out.

System: L1210 leukemia ip in BDF1 mice, survival T/C
Assay: NCI In Vivo Anticancer Drug Screen. Data for tumor model L1210 Leukemia (intraperitoneal) in B6D2F1 (BDF1) mice
Conditions: higher = longer survival
How it was run: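 In this screen, tumor-bearing mice given compound are compared to those given vehicle, and their survival values are reported as a treated-to-control quotient.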

[1] = endpoint: mean survival time, dose: 100.0 mg/kg/injection, schedule: Q01DX001 (ip), vehicle: saline
[2] = endpoint: mean survival time, dose: 200.0 mg/kg/injection, schedule: Q01DX001 (ip), vehicle: saline
[3] = endpoint: mean survival time, dose: 400.0 mg/kg/injection, schedule: Q01DX001 (ip), vehicle: saline
[4] = endpoint: mean survival time, dose: 75.0 mg/kg/injection, schedule: Q01DX001 (ip), vehicle: saline
[5] = endpoint: mean survival time, dose: 150.0 mg/kg/injection, schedule: Q01DX001 (ip), vehicle: saline
[6] = endpoint: mean survival time, dose: 300.0 mg/kg/injection, schedule: Q01DX001 (ip), vehicle: saline
[7] = endpoint: mean survival time, dose: 100.0 mg/kg/injection, schedule: Q04DX003 (ip), vehicle: Klucel (hydroxypropylcellulose) (HPC)
[8] = endpoint: mean survival time, dose: 200.0 mg/kg/injection, schedule: Q04DX003 (ip), vehicle: Klucel (hydroxypropylcellulose) (HPC)
[9] = endpoint: mean survival time, dose: 400.0 mg/kg/injection, schedule: Q04DX003 (ip), vehicle: Klucel (hydroxypropylcellulose) (HPC)
[10] = endpoint: mean survival time, dose: 100.0 mg/kg/injection, schedule: Q01DX009 (ip), vehicle: Klucel (hydroxypropylcellulose) (HPC)
[11] = endpoint: mean survival time, dose: 200.0 mg/kg/injection, schedule: Q01DX009 (ip), vehicle: Klucel (hydroxypropylcellulose) (HPC)
[12] = endpoint: mean survival time, dose: 400.0 mg/kg/injection, schedule: Q01DX009 (ip), vehicle: Klucel (hydroxypropylcellulose) (HPC)

O=C(O)CCCC(=O)CCCC(=O)O
T/C [1]: 98 % of control | T/C [2]: 93 % of control | T/C [3]: 104 % of control

CCCCCNCCO
T/C [4]: 105 % of control | T/C [5]: 105 % of control | T/C [6]: 109 % of control

Cn1c(N)c(N=Nc2ccc(S(N)(=O)=O)cc2)c(=O)n(C)c1=O
T/C [1]: 94 % of control | T/C [2]: 102 % of control | T/C [3]: 96 % of control

CC(=O)OC12C3CCCC1CCCC2CCC3 (centres undefined)
T/C [7]: 109 % of control | T/C [8]: 93 % of control | T/C [9]: 93 % of control

CCCCCCCCCC(C)CC1CCCCC1 (centres undefined)
T/C (endpoint: mean survival time, dose: 100.0 mg/kg/injection, schedule: Q01DX001 (ip), vehicle: saline with Tween-80): 96 % of control | T/C (endpoint: mean survival time, dose: 200.0 mg/kg/injection, schedule: Q01DX001 (ip), vehicle: saline with Tween-80): 96 % of control

C=CCCC1(C(C)CC)C(=O)NC(=S)NC1=O (centres undefined)
T/C [4]: 100 % of control | T/C [5]: 95 % of control | T/C [6]: 100 % of control

O=c1n[n+]([O-])ccn1C1OC(CO)C(O)C1O (centres undefined)
T/C (endpoint: mean survival time, dose: 100.0 mg/kg/injection, schedule: Q01DX005 (ip), vehicle: saline): 111 % of control | T/C (endpoint: mean survival time, dose: 200.0 mg/kg/injection, schedule: Q01DX005 (ip), vehicle: saline): 111 % of control | T/C (endpoint: mean survival time, dose: 200.0 mg/kg/injection, schedule: Q01DX009 (ip), vehicle: saline): 121 % of control | T/C (endpoint: median survival time, dose: 200.0 mg/kg/injection, schedule: Q01DX009 (ip), vehicle: saline): 176 % of control | T/C (endpoint: median survival time, dose: 250.0 mg/kg/injection, schedule: Q01DX009 (ip), vehicle: saline): 280 % of control | T/C (endpoint: median survival time, dose: 300.0 mg/kg/injection, schedule: Q01DX009 (ip), vehicle: saline): 352 % of control | T/C (endpoint: median survival time, dose: 350.0 mg/kg/injection, schedule: Q01DX009 (ip), vehicle: saline): 97 % of control | T/C (endpoint: median survival time, dose: 400.0 mg/kg/injection, schedule: Q01DX009 (ip), vehicle: saline): 97 % of control | T/C (endpoint: median survival time, dose: 450.0 mg/kg/injection, schedule: Q01DX009 (ip), vehicle: saline): 152 % of control

CC(C)(C)NC(=O)CCC1C(NC(=O)C(C)(C)C)C2(Cl)C(Cl)=C(Cl)C1(Cl)C2(Cl)Cl (centres undefined)
T/C [10]: 90 % of control | T/C [7]: 92 % of control | T/C [11]: 90 % of control | T/C [8]: 92 % of control | T/C [12]: 90 % of control | T/C [9]: 93 % of control

O=C(Nc1cccc(O)c1)Nc1cc([N+](=O)[O-])ccc1F
T/C (endpoint: mean survival time, dose: 100.0 mg/kg/injection, schedule: Q01DX001 (ip), vehicle: Klucel (hydroxypropylcellulose) (HPC)): 91 % of control | T/C [10]: 100 % of control and 90 % of control | T/C [7]: 93 % of control | T/C (endpoint: mean survival time, dose: 200.0 mg/kg/injection, schedule: Q01DX001 (ip), vehicle: Klucel (hydroxypropylcellulose) (HPC)): 98 % of control | T/C [11]: 94 % of control and 95 % of control | T/C [8]: 102 % of control | T/C (endpoint: mean survival time, dose: 400.0 mg/kg/injection, schedule: Q01DX001 (ip), vehicle: Klucel (hydroxypropylcellulose) (HPC)): 94 % of control | T/C [12]: 94 % of control and 100 % of control | T/C [9]: 95 % of control
